Patent US20030207813A1, “Retroviral protease inhibitor combinations” (priority 1995, published 2003)

Key:
NL4(P34-003) = experiment: Viral isolate resistance assay per Markowitz et al., NL4(P34-003); assay type: cell-based, HIV-1; settings: Human immunodeficiency virus 1; Table 11; selected against Example 9, 34 passages
Source text: (§1) RF represents the HIV-1 strain HIV-LRF and RFR represents a mixture of resistant strains obtained by selection of RF against the compound of Example 1. RFR comprises a mixture of viral strains having protease genotypes of G48V (14/40 clones); G48V, V82A (18/40 clones); G48V, L90S (2/40 clones); G48V, 154T, V82A (1/40 clones); G48M (1/40 clones); G48V, Q61H (1/40 clones); V13I, G48V (1/40 clones); G48V, F53L, V82A (1/40 clones); and G48V, V82A, C95Y (1/40 clones). RFR2 represents a mixture of resistant strains obtained by cloning RFR by three rounds of growth at limiting dilution. RFR2 comprises a mixture of viral strains having protease genotypes of G48V, V82A (13/15 clones); G17E, G48V, V82A (1/15 clones); and G48V, V82A, N37D, N88D (1/15 clones). RFRR represents a mixture of resistant strains obtained by selection of RF against the compounds of Examples 1 and 2 and then cloning by three rounds of growth at limiting dilution. RFRR comprises a mixture of viral strains having protease genotypes of G48V, 154T, L63P, V82A (7/9 clones); G48V, 154T, L63P, V82A, N88S (1/9 clones); and G48V, 154T, L63P, G73M, V82A (1/9 clones). SF162 represents the HIV-1 strain SF-162 and SF162R represents a mixture of resistant strains obtained by selection of SF162 against the compound of Example 1. SF162R comprises a mixture of viral strains having protease genotypes of M461, F53L, L63P, A71V, N88D (2/3 clones); and M46I, F53L, L63P, A71V, N88D, Q92R (1/3 clones). 89-959 represents the HIV-1 strain 89-959 and 89-959R represents a mixture of resistant strains obtained by selection of 89-959 against the compound of Example 2. 89-959R comprises a mixture of viral strains having protease genotypes of N88S (4/5 clones); and D25N, T26A, D30N, D37N, R41K, G73D, R87K, N88S (1/4 clones). NL4 represents the HIV-1 strain HIV-1NL4-3. NL4(G48V) represents a strain having a synthetically generated site-directed mutation in the protease from glycine to valine at amino acid position number 48. […]

NL4(R8Q,M46I) = experiment: Viral isolate resistance assay per Markowitz et al., NL4(R8Q,M46I); assay type: cell-based, HIV-1; settings: Human immunodeficiency virus 1, read-out: Virus Isolate (EC50 nM) NL4(R8O, M46I)
Source text: as §1

NL4(538/P24-AG) = experiment: Viral isolate resistance assay per Markowitz et al., NL4(538/P24-AG); assay type: cell-based, HIV-1; settings: Human immunodeficiency virus 1; Table 10; NL4(P22-538) selected against Example 12, 24 passages
Source text: as §1, with “48. NL4(I84V) represents a strain having a synthetically generated site-directed mutation in the protease from isoleucine to valine at amino acid position number 84. NL4(R8Q,M46I) represents a strain having synthetically generated site-directed mutations in the protease from arginine to glutamine at amino acid position number 8 and methionine to isoleucine at amino acid position number 46. NL4(P22-538) represents a mixture of resistant strains obtained by selection of HIV-1NL4-3 against the compound of Example 10 after 22 passages comprising protease genotypes M46I, L63P, A71V, V82F, I84V (4/10); M46I, L63P, V82F, I84V (3/10); and M46I, A71V, V82F, I84V (3/10). NL4(P37-538) represents resistant strains obtained by selection of HIV-1NL4-3 against the compound of Example 10 after 37 passages comprising protease genotype M46I, L63P, A71V, 184A. NL4(538/524) represents resistant strains obtained by selection of NL4(P22-538) against the compound of Example 5 after 24 passages comprising protease genotype M46I, L63P, A71V, 184A. NL4(538/P7-AG) represents a mixture of resistant strains obtained by selection of NL4(P22-538) against the compound of Example 12 after 7 passages comprising protease genotypes M46I, L63P, A71V, 184A; and V321, V82I. NL4(538/P24-AG) represents resistant strains obtained by selection of NL4(P22-538) against the compound of Example 12 after 24 passages comprising protease genotype M46I, L63P, A71V, 184A.” for “48.”

NL4(P37-538) = experiment: Viral isolate resistance assay per Markowitz et al., NL4(P37-538); assay type: cell-based, HIV-1; settings: Human immunodeficiency virus 1; Table 9; selected against Example 10, 37 passages; read-out: Virus Isolate (EC50 nM) NL4(P37-538)
Source text: (§2) RF represents the HIV-1 strain HIV-LRF and RFR represents a mixture of resistant strains obtained by selection of RF against the compound of Example 1. RFR comprises a mixture of viral strains having protease genotypes of G48V (14/40 clones); G48V, V82A (18/40 clones); G48V, L90S (2/40 clones); G48V, 154T, V82A (1/40 clones); G48M (1/40 clones); G48V, Q61H (1/40 clones); V13I, G48V (1/40 clones); G48V, F53L, V82A (1/40 clones); and G48V, V82A, C95Y (1/40 clones). RFR2 represents a mixture of resistant strains obtained by cloning RFR by three rounds of growth at limiting dilution. RFR2 comprises a mixture of viral strains having protease genotypes of G48V, V82A (13/15 clones); G17E, G48V, V82A (1/15 clones); and G48V, V82A, N37D, N88D (1/15 clones). RFRR represents a mixture of resistant strains obtained by selection of RF against the compounds of Examples 1 and 2 and then cloning by three rounds of growth at limiting dilution. RFRR comprises a mixture of viral strains having protease genotypes of G48V, 154T, L63P, V82A (7/9 clones); G48V, 154T, L63P, V82A, N88S (1/9 clones); and G48V, 154T, L63P, G73M, V82A (1/9 clones). SF162 represents the HIV-1 strain SF-162 and SF162R represents a mixture of resistant strains obtained by selection of SF162 against the compound of Example 1. SF162R comprises a mixture of viral strains having protease genotypes of M461, F53L, L63P, A71V, N88D (2/3 clones); and M46I, F53L, L63P, A71V, N88D, Q92R (1/3 clones). 89-959 represents the HIV-1 strain 89-959 and 89-959R represents a mixture of resistant strains obtained by selection of 89-959 against the compound of Example 2. 89-959R comprises a mixture of viral strains having protease genotypes of N88S (4/5 clones); and D25N, T26A, D30N, D37N, R41K, G73D, R87K, N88S (1/4 clones). NL4 represents the HIV-1 strain HIV-1NL4-3. NL4(G48V) represents a strain having a synthetically generated site-directed mutation in the protease from glycine to valine at amino acid position number 48. NL4(I84V) represents a strain having a synthetically generated site-directed mutation in the protease from isoleucine to valine at amino acid position number 84. NL4(R8Q,M46I) represents a strain having synthetically generated site-directed mutations in the protease from arginine to glutamine at amino acid position number 8 and methionine to isoleucine at amino acid position number 46. NL4(P22-538) represents a mixture of resistant strains obtained by selection of HIV-1NL4-3 against the compound of Example 10 after 22 passages comprising protease genotypes M46I, L63P, A71V, V82F, I84V (4/10); M46I, L63P, V82F, I84V (3/10); and M46I, A71V, V82F, I84V (3/10). NL4(P37-538) represents resistant strains obtained by selection of HIV-1NL4-3 against the compound of Example 10 after 37 passages comprising protease genotype M46I, L63P, A71V, 184A. NL4(538/524) represents resistant strains obtained by selection of NL4(P22-538) against the compound of Example 5 after 24 passages comprising protease genotype M46I, L63P, A71V, 184A. NL4(538/P7-AG) represents a mixture of resistant strains obtained by selection of NL4(P22-538) against the compound of Example 12 after 7 passages comprising protease genotypes M46I, L63P, A71V, 184A; and V321, V82I. NL4(538/P24-AG) represents resistant strains obtained by selection of NL4(P22-538) against the compound of Example 12 after 24 passages comprising protease genotype M46I, L63P, A71V, 184A. NLA(P19-003) represents resistant strains obtained by selection of HIV-1^NL4-3 against the compound of Example 9 after 19 passages comprising protease genotype R8K, M46I. NL4(P34-003) represents resistant strains obtained by selection of HIV-1^NL4-3 against the compound of Example 9 after 34 passages comprising protease genotype R8K, M46I, L63P, A71V, L90M.
The viral isolate resistance results summarized in Tables 7-11 were generated according to the assay procedures described by Markowitz et al., Journal of Virology, vol. […]

NL4(I84V) = experiment: Viral isolate resistance assay per Markowitz et al., NL4(I84V); assay type: cell-based, HIV-1; settings: Human immunodeficiency virus 1, Table 7
Source text: (§3) RF represents the HIV-1 strain HIV-LRF and RFR represents a mixture of resistant strains obtained by selection of RF against the compound of Example 1. […] RFR2 represents a mixture of resistant strains obtained by cloning RFR by three rounds of growth at limiting dilution. […] RFRR represents a mixture of resistant strains obtained by selection of RF against the compounds of Examples 1 and 2 and then cloning by three rounds of growth at limiting dilution. […] SF162 represents the HIV-1 strain SF-162 and SF162R represents a mixture of resistant strains obtained by selection of SF162 against the compound of Example 1. […] 89-959 represents the HIV-1 strain 89-959 and 89-959R represents a mixture of resistant strains obtained by selection of 89-959 against the compound of Example 2. […] NL4 represents the HIV-1 strain HIV-1NL4-3. NL4(G48V) represents a strain having a synthetically generated site-directed mutation in the protease from glycine to valine at amino acid position number 48. NL4(I84V) represents a strain having a synthetically generated site-directed mutation in the protease from isoleucine to valine at amino acid position number 84. NL4(R8Q,M46I) represents a strain having synthetically generated site-directed mutations in the protease from arginine to glutamine at amino acid position number 8 and methionine to isoleucine at amino acid position number 46.

HIV-1NL4-3 = experiment: microbe, parasite or virus in culture; assay type: cell-based; settings: Human immunodeficiency virus 1, NL4
Source text: as §3

NL4(G48V) = experiment: Viral isolate resistance assay per Markowitz et al., NL4(G48V); assay type: cell-based, HIV-1; settings: Human immunodeficiency virus 1, Table 7
Source text: as §3

NLA(P19-003) = experiment: Viral isolate resistance assay per Markowitz et al., NLA(P19-003); assay type: cell-based, HIV-1; settings: Human immunodeficiency virus 1, read-out: Virus Isolate (EC50 nM) NLA(P19-003)
Source text: as §1

NL4(538/524) = experiment: Viral isolate resistance assay per Markowitz et al., NL4(538/524); assay type: cell-based, HIV-1; settings: Human immunodeficiency virus 1; Table 10; NL4(P22-538) selected against Example 5, 24 passages
Source text: as §2, with “NLA(P19-003) represents resistant strains obtained by selection of HIV-1^NL4-3 against the compound of Example 9 after 19 passages comprising protease genotype R8K, M46I. NL4(P34-003) represents resistant strains obtained by selection of HIV-1^NL4-3 against the compound of Example 9 after 34 passages comprising protease genotype R8K, M46I, L63P, A71V, L90M.” left out

NL4(538/P7-AG) = experiment: Viral isolate resistance assay per Markowitz et al., NL4(538/P7-AG); assay type: cell-based, HIV-1; settings: Human immunodeficiency virus 1; Table 10; NL4(P22-538) selected against Example 12, 7 passages
Source text: as §2, with “NLA(P19-003) represents resistant strains obtained by selection of HIV-1^NL4-3 against the compound of Example 9 after 19 passages comprising protease genotype R8K, M46I. NL4(P34-003) represents resistant strains obtained by selection of HIV-1^NL4-3 against the compound of Example 9 after 34 passages comprising protease genotype R8K, M46I, L63P, A71V, L90M.” left out

NL4(P22-538) = experiment: Viral isolate resistance assay per Markowitz et al., NL4(P22-538); assay type: cell-based, HIV-1; settings: Human immunodeficiency virus 1; Table 9; selected against Example 10, 22 passages; read-out: Virus Isolate (EC50 nM) NL4(P22-538)
Source text: as §2, with “NLA(P19-003) represents resistant strains obtained by selection of HIV-1^NL4-3 against the compound of Example 9 after 19 passages comprising protease genotype R8K, M46I. NL4(P34-003) represents resistant strains obtained by selection of HIV-1^NL4-3 against the compound of Example 9 after 34 passages comprising protease genotype R8K, M46I, L63P, A71V, L90M.” left out

CC(C)c1nc(CN(C)C(=O)N[C@H](C(=O)N[C@@H](Cc2ccccc2)C[C@H](O)[C@H](Cc2ccccc2)NC(=O)OCc2cncs2)C(C)C)cs1 [Example 10] showed an EC50 (NL4(P34-003)) of 400 nM, an EC50 (NL4(R8Q,M46I)) of 240 nM and an EC50 (NL4(538/P24-AG)) of 6400 nM. For the same compound, the EC50 (NL4(P37-538)) was 6400 nM, the EC90 (NL4(I84V)) was 800 nM and the EC90 (HIV-1NL4-3; Table 7, EC90, read-out: Virus Isolate (EC90 nM) NL4) was 80 nM. For the same compound, the EC50 (HIV-1NL4-3; Table 8, read-out: Virus Isolate (EC50 nM) NL4) was 80 nM, the EC90 (NL4(G48V)) was 160 nM and the EC50 (NLA(P19-003)) was 400 nM. It also gave an EC50 (NL4(538/524)) of 6400 nM, an EC50 (NL4(538/P7-AG)) of 6400 nM and an EC50 (NL4(P22-538)) of 1600 nM.
